Legend:
[1] = molecular target: T1, β-amyloid Aβ21–40 (C-terminal fragment of Aβ1–40) (Homo sapiens, UniProt P05067); assay: UV/Vis titration; ESI-MS […] adduct; also ThT aggregation; format: binding
T1 construct: gene APP

[2] = molecular target: T1, β-amyloid Aβ21–40 (C-terminal fragment of Aβ1–40); assay: UV/Vis titration; ESI-MS […] adduct; also ThT aggregation and CD; format: binding

T1 sequence (P05067 692-711): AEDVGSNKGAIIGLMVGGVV

| Structure (SMILES) | EC50 [1] [µM] | EC50 [2] [µM] |
| --- | --- | --- |
| [Cl][Pt-2]1([Cl])[n+]2cccc3ccc4ccc[n+]1c4c32 [Pt-phen, (SP-4-2)-dichlorido(1,10-phenanthroline)platinum(II)] | 49 ± 20 |  |
| [Cl][Pt-2]12[n+]3ccccc3-c3cccc([n+]31)-c1cccc[n+]12 [Pt-terpy, (SP-4-2)-chlorido(2,2′:6′,2′′-terpyridine)platinum(II) chloride] |  | 68 ± 14 |

From PMC7998721, “A Comparative Study of the Effects of Platinum (II) Complexes on β-Amyloid Aggregation: Potential Neurodrug Applications” (International Journal of Molecular Sciences, 2021)
